pEC50, pIC50: −log10 of the molar value. “And” between values parts separate entries of the source, which are not always exact repeats. Equal entries are not always repeated. The source made the active and inactive calls.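 How the source made its calls: active means compounds giving half or more protection of infected cells from virus-caused growth loss, again on retest; inactive means the rest.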
System: CEM cells HIV-1 protection, formazan growth assay
Experiment: NCI AIDS Antiviral Assay
Conditions: for pIC50: measured here: growth of uninfected CEM cells
Summary of the method: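 Soluble formazan readout of cell growth; CEM cells ± HIV-1; 5 drug concs. ≥50% protection → retest; ≥50% again = moderately active; reproducible 100% = confirmed active.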

Row | Compound | pEC50 | pIC50 | outcome
1 | C=C1CN(S(=O)(=O)c2ccc([N+](=O)[O-])cc2)CC(=C)CN(S(=O)(=O)c2ccc([N+](=O)[O-])cc2)CC(=C)CN(S(=O)(=O)c2ccc([N+](=O)[O-])cc2)C1 | < 4.00 | < 4.00 | –
2 | CCN(CC)CCOc1ccc(C(C#N)=C(c2ccccc2)c2ccccc2)cc1 | < 3.70 | 5.59 | –
3 | [N-]=[N+]=NC1(c2ccccc2)C(=O)Nc2ccccc2C1=O (stereo not given) | < 4.23 | 4.52 | –
4 | CCOC(=O)C(=O)C(CCC(=O)c1ccc2ccccc2c1O)C(=O)OCC (stereo not given) | < 3.33 | 3.41 | –
5 | O=C(Nc1ccc(I)cc1)c1ccccc1[Se][Se]c1ccccc1C(=O)Nc1ccc(I)cc1 | < 5.33 | < 5.33 | –
6 | COc1cc2cc(C(=O)N3CC(CCl)c4ccc(NCCN)cc43)[nH]c2c(OC)c1OC (stereo not given) | < 5.70 | 6.09 | –
7 | Cn1c(=O)cc(NNc2ccc(Cl)c(Cl)c2)[nH]c1=O | < 3.70 | 5.51 | –
8 | Cc1cc(OP2(=O)NCc3ccncc3O2)ccc1Cl (stereo not given) | < 3.70 | < 3.70 | –
9 | O=C1C(C(c2ccc([N+](=O)[O-])cc2)N2CCOCC2)=C(O)C(c2ccccc2)N1c1ccccc1 (stereo not given) | < 4.00 | 4.61 | –
10 | CC12CCC(C)(c3cc(O)c(O)cc31)c1cc(O)c(O)cc12 | – | – | inactive
11 | Cc1ncc2c(n1)-c1ccccc1OC2O (stereo not given) | < 3.70 | < 3.70 | –
12 | CCCC(=O)C1=C(O)C(Cc2c(O)c(C)c(O)c(C(=O)CCC)c2O)=C(O)C(C)(C)C1=O | < 3.70 | 4.97 | –
13 | COc1ccc(NC(=O)CSc2nnc(-c3ccc(N=Cc4ccc(Cl)cc4)cc3)o2)cc1 | < 3.85 | 4.50 | –
14 | CCOC(=O)c1c(C)cc(C)nc1[S][Sn]([Br])([Br])[S]c1nc(C)cc(C)c1C(=O)OCC | 4.39 | 4.29 | –
15 | C=C1C(=O)OC2C=CCCCC12 (stereo not given) | < 4.27 | 5.33 | –
16 | S=C(S)N1CCOCC1 | < 3.70 | 6.14 | –
17 | O=C(NN1C(=O)C(Cl)C1c1ccc(O)cc1)c1ccccc1O (stereo not given) | < 4.66 | 4.99 | –
18 | O=c1c2ccccc2nc(-c2ccccc2)n1NC(=S)Nc1ccc(Cl)cc1 | < 3.91 | 3.97 | –
19 | C=C1C(=O)O[C@H](c2ccoc2)C[C@@H]1[C@@]1(C)CCCC2(C)C(=O)OCC21 (stereo not given in full) | < 3.84 | 4.02 | –
20 | N[C@H](C(=O)O)[C@@H](Cl)CC(=O)O | – | – | inactive
21 | Cc1ccc(C)n1-n1c2ccccc2c2ccccc21 | < 4.00 | < 4.00 | –
22 | CSc1nc2c(c(O)c(C)c(=O)n2C2OC(COC(C)=O)C(OC(C)=O)C(OC(C)=O)C2OC(C)=O)c(=O)n1C (stereo not given) | < 4.35 | < 4.35 | –

Row | Compound | pEC50 | pIC50 | outcome
23 | CCOC(=O)/C(=C/c1ccc[nH]1)P(=O)(OCC)OCC | < 3.36 | < 3.36 | –
24 | CN(/C(=N\O)c1ccccc1)c1ccccc1 | – | – | inactive
25 | CCCCOP(=S)(OCCCC)SC1(SC)SSC=C1CC(C)(C)C (stereo not given) | – | – | inactive
26 | CCOC(=O)c1c(N)sc2c1C(C(=O)OCC)CCC2 (stereo not given) | < 3.70 | 3.95 | –
27 | CCOc1ccc2nc(NC(=O)C(=O)C(C(=O)c3ccccc3F)C3OC(=O)c4ccccc43)sc2c1 (stereo not given) | < 3.74 | 5.09 | –
28 | CC1C2C=CC1C(c1c3ccc(=O)cc-3oc3cc(O)ccc13)C2C(=O)O (stereo not given) | 5.62 | 4.29 | –
29 | S=C(SSC(=S)N1CCOCC1)N1CCOCC1 | < 4.70 | 6.14 | –
30 | COc1ccc(-c2nc(N3CCCC3)no2)cc1 | < 3.70 | 3.71 | –
31 | CN(C)CCNC(=O)c1ccc(NC(=O)c2nc([N+](=O)[O-])cn2C)cc1 | < 3.70 | 3.74 | –
32 | Cc1ccc(SC(C)/C=C/NNC2=NC(c3ccccc3)C(c3ccccc3)=NN2)cc1 (stereo not given) | < 4.65 | < 4.65 | –
33 | CC/C(=N/OC(=O)N(CC)CC)c1ccccc1 | < 3.70 | 3.93 | –
34 | Brc1ccc(-c2ccc(-c3ccc(-c4ccc(Br)s4)s3)s2)s1 | < 3.70 | < 3.70 | –
35 | CC(C)N(C(=O)C12C3C4C5(C(=O)O)C(C1C35I)C42C(=O)O)C(C)C (stereo not given) | < 3.25 | < 3.25 | –
36 | COc1ccc(C(CC(=O)c2cccs2)C(=O)c2ccc3c(c2)OCO3)cc1 (stereo not given) | < 3.70 | 3.99 | –
37 | O=C(NO)c1cccc(OCc2ccc(Br)cc2)c1 | < 3.70 | 5.04 | –
38 | CC1(c2ccc[n+](Cc3ccccc3)c2)OCCO1 | < 3.40 | 3.42 | –
39 | OCCN(CCO)c1cccc(N(CCO)CCO)n1 | – | – | inactive
40 | CN(C)CCCNC(=O)CCNC(=O)c1cc(NC(=O)c2cc(NC(=O)c3cc(NC(=O)c4nc(NC(=O)CCCNC(=O)c5cc(NC(=O)c6cc(NC(=O)c7cc(NC(=O)c8nccn8C)cn7C)cn6C)cn5C)cn4C)cn3C)cn2C)cn1C | < 3.85 | 4.61 | –
41 | O=S(=O)(O)c1cccc2c(N=Nc3ccc(N=Nc4ccc(Nc5ccccc5)c5c(S(=O)(=O)O)cccc45)c4ccccc34)cccc12 | < 4.30 | 4.46 | –
42 | O=C1CCC(=O)c2cc(Br)ccc2N1 | < 3.85 | < 3.85 | –
43 | COC(=O)C1C(=O)CC[C@H]2CN3CCc4c([nH]c5ccccc45)C3CC12 (stereo not given in full) | < 4.27 | < 4.27 | –
44 | O=C(Nc1cccc(C(=O)NCCCO)c1)/C(=C/c1ccccc1)NC(=O)c1ccccc1 | < 3.70 | < 3.70 | –

Row | Compound | pEC50 | pIC50 | outcome
45 | Cn1c(N)c(N=O)c(=O)n(C)c1=O | < 3.70 | < 3.70 | –
46 | COc1ccc(-n2c(C)nc3ccc(NC4OCC(O)C(O)C4O)cc3c2=O)cc1 (stereo not given) | < 3.70 | 4.16 and 4.34 | –
47 | NC[C@H]1Nc2ccccc2[C@@H](O)C1O (stereo not given in full) | 4.32 | 2.89 | –
48 | CN(C)CC1CCCCCCCCCCC1=O (stereo not given) | < 3.70 | 3.93 and 4.03 | –
49 | COc1cc2c3c(c1)nc(C)n3C(=O)C(C)S2 (stereo not given) | < 3.70 | 4.30 | –
50 | CC(=O)NCCC1CN(C(=O)/C=C\C#C[Si](C)(C)C)c2ccccc21 (stereo not given) | < 3.70 | 4.71 | –
51 | Cc1c(C)c2c(c(N)c1C#N)C(=O)N(OS(=O)(=O)c1ccccc1)C2=O | < 3.82 | 4.59 | –
52 | COc1ccc(Nc2ccc([N+](=O)[O-])c3nonc23)cc1 | < 4.11 | < 4.11 | –
53 | O=C(O)CC(O)(c1ccccc1C(=O)O)c1cccc2ccccc12 (stereo not given) | – | – | inactive
54 | CN1C(=O)C2(C#N)C(C)(C)C2(C#N)C1=O (stereo not given) | < 3.70 | < 3.70 | –
55 | COc1ccc(Nc2nc3c(N)cc(C(F)(F)F)cc3nc2-c2ccccc2)cc1 | < 4.90 | < 4.90 | –
56 | Cc1nc2cc(Nc3ccccc3C(=O)O)ccc2s1 | < 3.20 | 3.80 | –
57 | COc1ccc2c(c1)C(=O)CC(c1ccccc1OC)O2 (stereo not given) | < 3.70 | 4.46 | –
58 | Nc1ccc(N=Nc2ccc(N=Nc3c(S(=O)(=O)O)cc4cc(S(=O)(=O)O)c(N=Nc5ccc(N=Nc6ccc(N)cc6N)cc5)c(O)c4c3N)cc2)c(N)c1 | 4.94 | 4.30 | –
59 | Clc1nc2n(c1/C=C/c1cccs1)CCS2 | < 3.70 | 4.69 | –
60 | C[C@H](NC(=O)c1ccccc1SC(=O)OCCCCCl)C(N)=O | 4.68 | < 3.70 | –
61 | Cn1cc(NC(=O)c2cc(NC(=O)CCCCCCC(=O)Nc3cc(C(=O)Nc4cc(C(=O)NCCC(=N)N)n(C)c4)n(C)c3)cn2C)cc1C(=O)NCCC(=N)N | < 3.69 | 4.45 | –
62 | CCc1cccc(C)c1NC(C)=O | – | – | inactive
63 | O=C1NC(=O)C(C(=O)C(=O)Nc2ccc(Br)cc2)C(=O)N1 | < 3.72 | < 3.72 | –
64 | Cc1ccccc1C(=O)c1ccccc1C(=O)O | 3.70 | 3.21 | –
65 | Cc1cnc(C)c(-c2cc3ccccc3[nH]2)n1 | < 4.49 | < 4.49 | –
66 | CN(C)CCCOC(=O)C1C[C@@H](O)CN1C(=O)c1ccc2c(c1)OCO2 (stereo not given in full) | < 3.70 | < 3.70 | –

Row | Compound | pEC50 | pIC50 | outcome
67 | Cc1cn(C2CC(N=[N+]=[N-])C(COP(=O)(OCC(=O)c3ccco3)OCC(=O)c3ccco3)O2)c(=O)[nH]c1=O (stereo not given) | 8.34 | 5.70 | –
68 | O=C1NC(=O)C(CCC(=O)c2ccc3ccccc3c2)C(=O)N1 | < 3.96 | < 3.96 | –
69 | N#Cc1ccccc1Sc1ccccc1N | < 3.80 | < 3.80 | –
70 | Cc1cc2c(=O)cc(-c3ccc(Cl)cc3)oc2c(C(=O)O)c1C | – | – | inactive
71 | CSc1nc2nccnc2c(=O)[nH]1 | < 2.89 | < 2.89 | –
72 | O=C1C(c2ccccc2)C2C=CC(C2)N1O (stereo not given) | < 3.70 | < 3.70 | –
73 | Cc1cn(C2CCC(COP(=O)(OCC(=O)c3ccccc3)OCC(=O)c3ccccc3)O2)c(=O)[nH]c1=O (stereo not given) | 4.71 | < 3.70 | –
74 | CN1CCCCCCC1CO (stereo not given) | – | – | inactive
75 | COC(=O)/C(C#N)=C1\N=NNN1CCCc1ccccc1 | – | – | inactive
76 | O=C1NC(Nc2ccccc2)=NC(C(F)(F)F)(C(F)(F)F)N1 | < 3.70 | 4.44 | –
77 | CC1C[C@@]23C4CCCN2CC2OC2[C@@]13C1CC4OC1=O (stereo not given in full) | < 3.74 | < 3.74 | –
78 | Cc1ccc(S(=O)(=O)CN2C(=O)C(c3ccccc3)(c3ccccc3)C23OC(c2ccc(Cl)cc2)=CC3=O)cc1 (stereo not given) | < 3.70 | < 3.70 | –
79 | COC1=CCC=C(C[C@@H]2NCCc3cc(OC)c(OC)cc32)C1 | < 3.70 | < 3.70 | –
80 | O[C@@H]1CCC[C@@H]2NC[C@@H](c3ccc4c(c3)OCO4)[C@H]12 | < 3.70 | < 3.70 | –
81 | O=C(Nc1cc2c(cc1OCc1ccccc1)N(S(=O)(=O)c1ccccc1)[C@@H]1c3ccccc3OC[C@H]21)c1ccccc1 | < 3.70 | < 3.70 | –
82 | Cn1ccoc1=Nc1ccc(Cl)c(Cl)c1 | < 3.70 | < 3.70 | –
83 | CC(C)CC(C(N)=O)C(=O)NC(Cc1ccccc1)NC(=O)CNC(=O)C(C)NC(=O)C(N)Cc1ccc(O)cc1 (stereo not given) | < 3.70 | < 3.70 | –
84 | c1cncc(CN2CCCC2)c1 | – | – | inactive
85 | Cc1ccc2nc(NC(=O)C(=O)C(C#N)c3nc4ccccc4s3)sc2c1 (stereo not given) | < 4.18 | < 4.18 | –
86 | O=C(/C=C/c1ccc(Cl)c(Cl)c1)c1cccc2ccccc12 | < 5.50 | < 5.50 | –
87 | COc1cc2c(oc(=O)c3cc4cc([Si](C)(C)C)oc4c(OC)c32)c2cccc(O)c12 | < 5.92 | < 5.92 | –
88 | Nc1nc2c(ncn2CC2COC(CO)O2)c(=O)[nH]1 (stereo not given) | < 3.33 | < 3.33 | –
